Experimental data published in PubChem BioAssay (NCI).
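Values below derive from 48-hour exposures of cells grown in 96-well plates, with endpoints linearly interpolated between the two concentrations bracketing the appropriate inhibition level. GI50 = concentration required for 50% inhibition of growth. TGI: total growth inhibition.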

Assays:
Experiment in all cases: DTP human tumour cell line panel, 48 h
ACHN renal = tested on: ACHN renal
CAKI-1 renal = tested on: CAKI-1 renal
HL-60(TB) leukemia = tested on: HL-60(TB) leukemia
IGROV1 ovarian = tested on: IGROV1 ovarian
M14 melanoma = tested on: M14 melanoma
NCI-H226 lung = tested on: NCI-H226 lung
NCI-H23 lung = tested on: NCI-H23 lung
SK-MEL-2 melanoma = tested on: SK-MEL-2 melanoma
SNB-75 CNS = tested on: SNB-75 CNS
SR leukemia = tested on: SR leukemia

Row | Structure (SMILES) | TGI (ACHN renal) [µM] | TGI (CAKI-1 renal) [µM] | TGI (HL-60(TB) leukemia) [µM] | TGI (IGROV1 ovarian) [µM] | TGI (M14 melanoma) [µM] | TGI (NCI-H226 lung) [µM] | TGI (NCI-H23 lung) [µM] | TGI (SK-MEL-2 melanoma) [µM] | TGI (SNB-75 CNS) [µM] | TGI (SR leukemia) [µM] | GI50 (ACHN renal) [µM] | GI50 (CAKI-1 renal) [µM] | GI50 (HL-60(TB) leukemia) [µM] | GI50 (IGROV1 ovarian) [µM] | GI50 (M14 melanoma) [µM] | GI50 (NCI-H226 lung) [µM] | GI50 (NCI-H23 lung) [µM] | GI50 (SK-MEL-2 melanoma) [µM] | GI50 (SNB-75 CNS) [µM] | GI50 (SR leukemia) [µM]
1 | CS(=O)(=O)OCCN(CCOS(C)(=O)=O)c1ccc(C=O)cc1 | 2.69 | 2.08 | 35.4 | 43.3 | 30.4 | 13.4 | 12.6 | 42.8 | 13.1 | 14.7 | – | – | – | – | – | – | – | – | – | –
2 | C[C@H](N)C(=O)N1C[C@H](CCCB(O)O)[C@](N)(C(=O)O)C1 | > 100 | > 100 | > 100 | > 100 | > 100 | > 100 | > 100 | > 100 | > 100 | > 100 | > 100 | > 100 | > 100 | > 100 | > 100 | > 100 | > 100 | > 100 | > 100 | > 100
3 | N#CC1CC2(C(=O)C1=O)c1ccccc1-c1ccccc12 (stereo not given) | > 100 | > 100 | > 100 | > 100 | > 100 | > 100 | > 100 | > 100 | > 100 | > 100 | – | – | – | – | – | – | – | – | – | –
4 | CC1(C)CC(Nc2ccc(Nc3ccccc3)cc2)CC(C)(C)N1 | 37.2 | 53.1 | 19.2 | 78.6 | 34.7 | 40.8 | 63.7 | 52.9 | > 100 | 50.2 | – | – | – | – | – | – | – | – | – | –
5 | CN(C)CCCn1c2nc(=O)[nH]c(=O)c-2nc2cc(Cl)c(Cl)cc21 | 11.8 | 4.66 | 9.97 | 13.9 | 13 | 9.28 | 23.5 | 16.1 | 32.5 | 30.5 | 3.46 | 1.83 | 3.83 | 4.65 | 3.68 | 2.58 | 8.04 | 4.81 | 18 | 6.61
6 | Cn1c(=O)c(Oc2ccccc2)cc2cnc(NC3CCOCC3)nc21 | > 25 | > 25 | > 25 | > 25 | > 25 | > 25 | > 25 | > 25 | > 25 | > 25 | > 25 | > 25 | > 25 | > 25 | > 25 | > 25 | > 25 | > 25 | > 25 | > 25
7 | NC1=Nc2cc(OCCCN3Cc4ccccc4C3)c(OCC3CC3)cc2C12CCCC2 | 11.9 | 11.3 | 4.69 | 17.2 | 3.47 | 21 | 12.9 | 4.7 | 7.97 | 5.02 | 3.44 | 2.31 | 2.03 | 4.17 | 1.85 | 3.72 | 3.61 | 2.35 | 1.07 | 1.94
8 | Cc1cc(=O)oc2cc(OS(C)(=O)=O)ccc12 | > 100 | > 100 | > 100 | > 100 | > 100 | > 100 | > 100 | > 100 | > 100 | > 100 | – | – | – | – | – | – | – | – | – | –
9 | S=c1nc(N2CCCCC2)ss1 | 67 | > 100 | 44.3 | 58.5 | 47.7 | > 100 | > 100 | 37.7 | 77 | 45.4 | – | – | – | – | – | – | – | – | – | –
10 | COc1cc(OC)c(C(=O)/C=C/c2cccc(OC(C)=O)c2)cc1CC=C(C)C | 29.2 | > 50 | > 50 | > 50 | 18.2 | 40.7 | 18.5 | 35.6 | 11.8 | 16.1 | 10.1 | 23.2 | 13.3 | 15.9 | 7.3 | 12.8 | 8.05 | 8.9 | 4.68 | 1.74
11 | NC1CCC(N[C@@H]2C[C@H]2c2ccccc2)CC1 (stereo not given in full) | > 100 | > 100 | > 100 | > 100 | > 100 | > 100 | > 100 | > 100 | > 100 | > 100 | > 100 | 32 | > 100 | 92.5 | > 100 | > 100 | > 100 | > 100 | 8.89 | 19.9
12 | Fc1ccc2[nH]cc(SSc3c[nH]c4ccc(F)cc34)c2c1 | 34.3 | 21.7 | 6.57 | 20.8 | > 100 | 7.86 | 77.5 | 17 | 15.9 | 11.3 | 4.34 | 3.52 | 1.83 | 5.35 | 5.29 | 2.7 | 16.7 | 3.62 | 3.12 | 2.29
13 | COc1cc(/C=C2\C(=O)Nc3cccc(Cl)c32)cc(OC)c1OC | > 100 | > 100 | > 100 | > 100 | > 100 | > 100 | > 100 | > 100 | 84 | 25.1 | 53.2 | > 100 | 11 | > 100 | > 100 | > 100 | > 100 | > 100 | 21.9 | 1.55
14 | CCC(C(=O)c1ccccc1)C(CCCC(=O)Nc1c(C)cccc1C)N=O (stereo not given) | > 100 | > 100 | > 100 | > 100 | > 100 | > 100 | > 100 | > 100 | > 100 | > 100 | – | – | – | – | – | – | – | – | – | –
